Laboratory results: patent publication US11230543B2, “Biaryl monobactam compounds and methods of use thereof for the treatment of bacterial infections” (priority 2015, dated 2022)
Counter-ions that a name gives are not always drawn.

Columns and labels:
[1] = system: Klebsiella pneumoniae expressing KPC-1 (CL6569); assay: Antibiotic activity: growth inhibitory concentration (OD600), Klebsiella pneumoniae CL6569; format: cell-based; details: lowest concentration inhibiting 95% of bacterial growth, in the presence of β lactamase inhibitor Relebactam 4 μg/mL, 35±2° C. for 22 hours, tested range 100 μM to 0.098 μM
How it was run: (§1)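 Growth inhibition by OD600 after 22 hours incubation at 35±2° C, reported as lowest concentration inhibiting 95% of growth (MITC95). Final compound range 100 μM to 0.098 μM, always combined with β-lactamase inhibitor relebactam (4 μg/mL final); inoculum ~2×10^5 CFU/mL in cation-adjusted Mueller-Hinton II broth.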

[2] = system: Pseudomonas aeruginosa expressing AmpC (CL5701); assay: Antibiotic activity: growth inhibitory concentration (OD600), Pseudomonas aeruginosa CL5701; format: cell-based; details: lowest concentration inhibiting 95% of bacterial growth; in the presence of β lactamase inhibitor Relebactam 4 μg/mL; 35±2° C. for 22 hours; tested range 100 μM to 0.098 μM
How it was run: as §1

Row | Structure (SMILES) | KP_CL6569 MITC95 ([1]; 2,2,2-trifluoroacetate) | PA_CL5701 MITC95 [2] | KP_CL6569 MITC95 [1]
1 | C[n+]1cc(-c2ccc(OCC(C)(O/N=C(\C(=O)N[C@@H]3C(=O)N(OS(=O)(=O)O)C3(C)C)c3csc(N)n3)C(=O)O)cc2)cn1CCCN (single isomer, unassigned) [Example 23A, 2,2,2-trifluoroacetate] | 0.3906 µM | 3.125 µM | 
2 | C[n+]1cc(-c2ccc(OC[C@H](O/N=C(\C(=O)N[C@@H]3C(=O)N(OS(=O)(=O)[O-])C3(C)C)c3csc(N)n3)C(=O)O)cc2)ccc1N1CCNCC1 [Example 71, (S)-3-((Z)-2-(2-aminothiazol-4-yl)-2-(((S)-1-carboxy-2-(4-(1-methyl-6-(piperazin-1-yl)pyridin-1-ium-3-yl)phenoxy)ethoxy)imino)acetamido)-2,2-dimethyl-4-oxoazetidin-1-yl sulfate] |  | 6.25 µM | 0.1953 µM
3 | CC1(C)[C@H](NC(=O)/C(=N\O[C@@H](COc2ccc(-n3cc(CCCN)[n+](CC4(F)CNC4)c3)nc2)C(=O)O)c2csc(N)n2)C(=O)N1OS(=O)(=O)[O-] [Example 124, (S)-3-((Z)-2-(((S)-2-((6-(4-(3-aminopropyl)-3-((3-fluoroazetidin-3-yl)methyl)-1H-imidazol-3-ium-1-yl)pyridin-3-yl)oxy)-1-carboxyethoxy)imino)-2-(2-aminothiazol-4-yl)acetamido)-2,2-dimethyl-4-oxoazetidin-1-yl sulfate] |  | 12.5 µM | 0.7813 µM
4 | C[n+]1cc(-c2ccc(OC[C@H](O/N=C(\C(=O)N[C@@H]3C(=O)N(OS(=O)(=O)[O-])C3(C)C)c3csc(N)n3)C(=O)O)cc2)ccc1CNCCN [Example 78, (S)-3-((Z)-2-(((S)-2-(4-(6-(((2-aminoethyl)amino)methyl)-1-methylpyridin-1-ium-3-yl)phenoxy)-1-carboxyethoxy)imino)-2-(2-aminothiazol-4-yl)acetamido)-2,2-dimethyl-4-oxoazetidin-1-yl sulfate] |  | 12.5 µM | 0.7813 µM
5 | C[C@@H]1[C@H](NC(=O)/C(=N\O[C@@](C)(COc2ccc(-c3cn(CCCN)[n+](C)c3)cc2)C(=O)O)c2csc(N)n2)C(=O)N1S(=O)(=O)O.O=C([O-])C(F)(F)F [Example 25, 1-(3-aminopropyl)-4-(4-((S)-2-((((Z)-1-(2-aminothiazol-4-yl)-2-(((2R,3S)-2-methyl-4-oxo-1-sulfoazetidin-3-yl)amino)-2-oxoethylidene)amino)oxy)-2-carboxypropoxy)phenyl)-2-methyl-1H-pyrazol-2-ium 2,2,2-trifluoroacetate] |  | 3.125 µM | 0.3906 µM
6 | CC(CN)Nc1ccc(-c2ccc(OC[C@H](O/N=C(\C(=O)N[C@@H]3C(=O)N(OS(=O)(=O)[O-])C3(C)C)c3csc(N)n3)C(=O)O)cc2)c[n+]1C (stereo partly drawn) [Example 76, (3S)-3-((Z)-2-(((1S)-2-(4-(6-((1-aminopropan-2-yl)amino)-1-methylpyridin-1-ium-3-yl)phenoxy)-1-carboxyethoxy)imino)-2-(2-aminothiazol-4-yl)acetamido)-2,2-dimethyl-4-oxoazetidin-1-yl sulfate] |  | 3.125 µM | 0.1953 µM
7 | C[n+]1cc(-c2ccc(OCC(C)(O/N=C(\C(=O)N[C@@H]3C(=O)N(OS(=O)(=O)O)C3(C)C)c3nc(N)sc3Cl)C(=O)O)cc2)cn1CCCN (stereo in doubt) [Example 51A, (S)-3-((Z)-2-(2-Amino-5-chlorothiazol-4-yl)-2-((((R)-1-(4-(1-(3-aminopropyl)-2-methyl-1H-pyrazol-2-ium-4-yl)phenoxy)-2-carboxypropan-2-yl)oxy)imino)acetamido)-2,2-dimethyl-4-oxoazetidin-1-yl sulfate] |  | 3.125 µM | 0.7813 µM
8 | COC(=O)[C@H](COc1ccc(-c2cn(CCCN)[n+](C)c2)cc1)O/N=C(\C(=O)N[C@@H]1C(=O)N(OS(=O)(=O)[O-])C1(C)C)c1csc(N)n1 [Example 117, (S)-3-((Z)-2-((((S)-3-(4-(1-(3-aminopropyl)-2-methyl-1H-pyrazol-2-ium-4-yl)phenoxy)-1-methoxy-1-oxopropan-2-yl)oxy)imino)-2-(2-aminothiazol-4-yl)acetamido)-2,2-dimethyl-4-oxoazetidin-1-yl sulfate] |  | 25 µM | 3.125 µM
9 | C[n+]1cc(-c2ccc(OC[C@H](O/N=C(\C(=O)N[C@@H]3C(=O)N(OS(=O)(=O)[O-])C3(C)C)c3csc(N)n3)C(=O)O)cc2)ccc1CNC(CN)CN [Example 79, (S)-3-((Z)-2-(2-aminothiazol-4-yl)-2-(((S)-1-carboxy-2-(4-(6-(((1,3-diaminopropan-2-yl)amino)methyl)-1-methylpyridin-1-ium-3-yl)phenoxy)ethoxy)imino)acetamido)-2,2-dimethyl-4-oxoazetidin-1-yl sulfate] |  | 6.25 µM | 0.3906 µM
10 | CC1(C)[C@H](NC(=O)/C(=N\O[C@@H](COc2ccc(-c3cc(CNCCN)n(CCCN)n3)cc2)C(=O)O)c2csc(N)n2)C(=O)N1OS(=O)(=O)O [Example 125, (S)-3-(4-(5-(((2-Aminoethyl)amino)methyl)-1-(3-aminopropyl)-1H-pyrazol-3-yl)phenoxy)-2-((((Z)-1-(2-aminothiazol-4-yl)-2-(((S)-2,2-dimethyl-4-oxo-1-(sulfooxy)azetidin-3-yl)amino)-2-oxoethylidene)amino)oxy)propanoic acid] |  | 3.125 µM | 0.39 µM
11 | C[n+]1cc(-c2ccc(OC[C@H](O/N=C(/C(=O)N[C@@H]3C(=O)N(OS(=O)(=O)[O-])C3(C)C)c3csc(N)n3)C(=O)O)cc2)cn1CCCNCCN [Example 102, (S)-3-((E)-2-(((S)-2-(4-(1-(3-((2-aminoethyl)amino)propyl)-2-methyl-1H-pyrazol-2-ium-4-yl)phenoxy)-1-carboxyethoxy)imino)-2-(2-aminothiazol-4-yl)acetamido)-2,2-dimethyl-4-oxoazetidin-1-yl sulfate] |  | 3.125 µM | 0.125 µM
12 | C[n+]1cc(OC[C@H](O/N=C(\C(=O)N[C@@H]2C(=O)N(OS(=O)(=O)O)C2(C)C)c2csc(N)n2)C(=O)O)ccc1-c1cnn(CCCN)c1.O=C([O-])C(F)(F)F [Example 26, 2-(1-(3-aminopropyl)-1H-pyrazol-4-yl)-5-((S)-2-((((Z)-1-(2-aminothiazol-4-yl)-2-(((S)-2,2-dimethyl-4-oxo-1-(sulfooxy)azetidin-3-yl)amino)-2-oxo-ethylidene)amino)oxy)-2-carboxyethoxy)-1-methylpyridin-1-ium 2,2,2-trifluoroacetate] |  | 50 µM | 1.563 µM
13 | C[n+]1cc(-c2ccc(OC[C@H](O/N=C(/C(=O)N[C@@H]3C(=O)N(OS(=O)(=O)[O-])C3(C)C)c3csc(N)n3)C(=O)O)cc2)cn1CCCNC[C@H](O)CO [Example 101, (S)-3-((E)-2-(2-aminothiazol-4-yl)-2-(((S)-1-carboxy-2-(4-(1-(3-(((S)-2,3-dihydroxypropyl)amino)propyl)-2-methyl-1H-pyrazol-2-ium-4-yl)phenoxy)ethoxy)imino)acetamido)-2,2-dimethyl-4-oxoazetidin-1-yl sulfate] |  | 12.5 µM | 0.7813 µM
14 | CC1(C)[C@H](NC(=O)/C(=N\O[C@@H](COc2ccc(-c3cnc(NCCN)nc3)cc2)C(=O)O)c2csc(N)n2)C(=O)N1OS(=O)(=O)O [Example 70, (S)-3-(4-(2-((2-aminoethyl)amino)pyrimidin-5-yl)phenoxy)-2-((((Z)-1-(2-aminothiazol-4-yl)-2-(((S)-2,2-dimethyl-4-oxo-1-(sulfooxy)azetidin-3-yl)amino)-2-oxoethylidene)amino)oxy)propanoic acid] |  | 6.25 µM | 0.7813 µM
15 | C[n+]1c(N)c(-c2ccc(OC[C@H](O/N=C(\C(=O)N[C@@H]3C(=O)N(OS(=O)(=O)[O-])C3(C)C)c3csc(N)n3)C(=O)O)cc2F)cn1CCCN [Example 47, (S)-3-((Z)-2-(((S)-2-(4-(3-Amino-1-(3-aminopropyl)-2-methyl-1H-pyrazol-2-ium-4-yl)-3-fluorophenoxy)-1-carboxyethoxy)imino)-2-(2-aminothiazol-4-yl)acetamido)-2,2-dimethyl-4-oxoazetidin-1-yl sulfate] |  | 3.125 µM | 0.3906 µM
16 | C[n+]1cc(-c2ccc(OC[C@H](O/N=C(\C(=O)N[C@@H]3C(=O)N(OS(=O)(=O)[O-])C3(C)C)c3nc(N)sc3Cl)C(=O)O)cc2F)ccc1NCCN [Example 69, (S)-3-((Z)-2-(2-amino-5-chlorothiazol-4-yl)-2-(((S)-2-(4-(6-((2-aminoethyl)amino)-1-methylpyridin-1-ium-3-yl)-3-fluorophenoxy)-1-carboxyethoxy)imino)acetamido)-2,2-dimethyl-4-oxoazetidin-1-yl sulfate] |  | 3.125 µM | 0.3906 µM
17 | CC1(C)[C@H](NC(=O)/C(=N\O[C@@H](COc2ccc(-c3ccc(NCCN)[n+](CC4CNC4)c3)cc2)C(=O)O)c2csc(N)n2)C(=O)N1OS(=O)(=O)[O-] [Example 98, (S)-3-((Z)-2-(((S)-2-(4-(6-((2-aminoethyl)amino)-1-(azetidin-3-ylmethyl)pyridin-1-ium-3-yl)phenoxy)-1-carboxyethoxy)imino)-2-(2-aminothiazol-4-yl)acetamido)-2,2-dimethyl-4-oxoazetidin-1-yl sulfate] |  | 1.563 µM | 0.09766 µM
